The values that follow come from patent US6716625B1, “Histidine kinases of Aspergillus and other fungal species, related compositions, and methods of use” (priority 1997, dated 2004).

*1 amine or outer side, *2 acyl side, *3 side chain or, on linkers, in order; H or OH if unused. Where a SMILES comes first, the peptide text is derived from it. Bridges are numbered along the chain shown (N, C = ends). [ ]: non-standard residue; d: D form. The star is where a group is joined. Orn(4R-OH,5R-OH) = O=C([C@H](C[C@@H](O)[C@@H](O)N[*:3])N[*:1])[*:2]; hTyr(3S-OH,4S-OH) = N[C@H](C(=O)O)[C@H](O)[C@@H](O)c1ccc(O)cc1; Pro(3S-OH,4S-Me) = C[C@H]1CN[C@H](C(=O)O)[C@H]1O; Benzoyl(4-octyloxy) = CCCCCCCCOc1ccc(C(=O)*)cc1; Hyp = O=C(O)[C@@H]1C[C@@H](O)CN1

The test system of assay [1] is A. fumigatus wild-type strain. Description: Dicarboximide drug sensitivity: hyphal extension on agar-solidified MPG medium, wild-type strain. The assay is classed as cell-based, Aspergillus fumigatus. The settings on record: mean ± standard deviation of at least 12 data points. Here is the method:
(§1) Although an understanding of the mechanism is not necessary in order to use the present invention, resistance to dicarboximide antifungals by a number of fungi appears to involve a histidine kinase mutation. […] To test if the ΔFOS-1 strain was also resistant to vinclozolin, iprodione and procymidone, the growth of wild-type and ΔFOS-1 strains on medium containing each drug was examined. Briefly, wild-type and ΔFOS-1 conidia (1×10^3 in 2 μl) were inoculated onto agar-solidified MPG medium containing 10 μg/ml vinclozolin or iprodione, or 12 μg/ml procymidone. Hyphal extension rates in mm/hr were recorded, and a mean determined based on at least 12 individual data points. Results are shown±standard deviation. P values were calculated using the Students t test (http://nimitz.mcs.kent.edu/˜blewis/stat/tTest.html).

For assay [2], the system named is A. fumigatus ΔFOS-1 strain. Put plainly: Dicarboximide drug sensitivity: hyphal extension on agar-solidified MPG medium, ΔFOS-1 strain. It counts as cell-based, Aspergillus fumigatus. The settings on record: mean ± standard deviation of at least 12 data points. The protocol: as §1
Assay [3] has as its system A. fumigatus wild-type and ΔFOS-1 strains. Put plainly: Sensitivity to antifungals, variation of NCCLS M27T-protocol (microtiter broth). Particulars: 1×RPMI medium, 48 hours, 37° C., 96-well plates. It counts as cell-based, Aspergillus fumigatus. The protocol: Sensitivity to antifungals: To assess the differential sensitivities of the wild-type and ΔFOS-1 strains to a number of antifungal compounds, the minimum inhibitor concentration of amphotericin B, nikkomycin Z, benomyl, miconazole, ketoconazole, fluconazole, cilofungin, 5-fluorocytosine and calcofluor white M2R new against the wild-type and ΔFOS-1 strains was determined. This fungal sensitivity was determined using a variation of the National Committee for Clinical Laboratory Standards (NCCLS) M27T-protocol (Galgiani et al., NCCLS, 15:1-29 [1995]). Briefly, serial dilutions of the anti-fungal drugs were made in 100 μl 1×RPMI medium (Life Technologies) and an additional 100 μl 1×RPMI medium containing 2×10^4 conidia/ml of each strain was added to each well of 96-well microtiter plates. Plates were incubated for 48 hours with gentle shaking at 37° C. The amount of growth in each well was estimated using a inverted phase microscope.

In assay [4] the test system is C. albicans wild-type, ΔCOS-1/ΔCOS-1, hemizygous and reconstituted strains. Put plainly: Sensitivity of C. albicans COS-1 strains to antifungal drugs in liquid RPMI medium (NCCLS M27-T). The assay is classed as cell-based, Candida albicans. The protocol:
For determination of viability and growth, each strain tested was grown from −80° C. stocks overnight at 37° C. in 50 ml of Sabouraud dextrose broth (30 g/L) (Difco, Catalog Number 0382-17-9) in 250 ml flasks with shaking at 180 rpm. Three hundred milliliter Nephelo flasks (Bellco) containing 60 ml medium were inoculated with 1×10^6 cells/ml (final concentration) from the starter culture and incubated at 37° C. with orbital shaking at 180 rpm. The optical density of each culture was determined periodically using a Klett-Summerson Photoelectric Colorimeter (Klett). For cell viability determination, overnight cultures were diluted and known numbers (as determined by hemacytometer counts) were plated onto agar-solidified SD medium and the numbers of resulting colonies determined. The sensitivity of each strain to a number of antifungal drugs in liquid medium was performed essentially as described in the National Committee for Clinical Laboratory Standards (NCCLS) 27T-protocol (Galgiani et al., NCCLS, 15:1-29 [1995]).

In assay [5] the test system is A. fumigatus wild-type and ΔFOS-1 strains. Put plainly: Effect of oxidative stress compounds on hyphal growth. It counts as cell-based, Aspergillus fumigatus. The settings on record: agar-solidified MPG medium; diamide 0-2 mM or menadione 0-0.06 mM; 37° C., 3 days. The protocol:
Effect of oxidative stress compounds: To determine the effect of various oxidative stress-inducing compounds on hyphal growth in the wild-type and ΔFOS-1 strains, 2 μl water containing 1×10^3 conidia were placed as single spots onto 150 mm×15 mm petri plates containing 30 ml agar-solidified MPG medium. In addition, these agar plates contained either diamide (0-2 mM; Sigma) (an SH residue oxidant that attacks surface proteins; de Souza Pereira and Geibel, J. Mol. Cell Biochem., 201:17-24 [1999]), or menadione (0-0.06 mM; Sigma Aldrich) (a superoxide generator; Caricchio et al., Clin. Immunol., 93:65-74 [1999]). These plates were incubated at 37° C. for 3 days. Hyphal growth/extension rates were determined by recording the distance traveled by hyphal fronts after various times of incubation.

Assay [6] has as its system OS-1 mutant strains of N. crassa. Particulars: Beever 1983; cited from earlier work.
Where [7] appears, read: 12 μg/ml drug in agar-solidified MPG medium.
Setting [8] is: 10 μg/ml drug in agar-solidified MPG medium.

Turning to `CC12CC1(C)C(=O)N(c1cc(Cl)cc(Cl)c1)C2=O` (stereo not drawn) [procymidone], the “Hyphal extension rate, wild-type” value in assay [1] (setting [7]) amounted to 0.21 ± 0.13 mm/hr. The “Hyphal extension rate, ΔFOS-1” value in assay [2] (setting [7]) stood at 0.48 ± 0.08 mm/hr.

Take `Clc1ccc(COC(Cn2ccnc2)c2ccc(Cl)cc2Cl)c(Cl)c1` (stereo not drawn) [miconazole]: the “Difference in minimum inhibitor concentration between wild-type and ΔFOS-1 strains” value in assay [3] was “No differences in minimum inhibitor concentration”. In addition, the “Relative sensitivity of wild-type, ΔCOS-1/ΔCOS-1, hemizygous and reconstituted strains” value in assay [4] is reported as “equally sensitive”.

`CN(C)C(=O)/N=N/C(=O)N(C)C` [diamide]: the “Difference in hyphal growth/extension rates between wild-type and ΔFOS-1 strains” value in assay [5] is recorded as “No differences in hyphal growth/extension rates”.

For the compound `O=S(=O)([O-])c1cc(Nc2nc(Nc3ccccc3)nc(N(CCO)CCO)n2)ccc1/C=C/c1ccc(Nc2nc(Nc3ccccc3)nc(N(CCO)CCO)n2)cc1S(=O)(=O)[O-].[Na+].[Na+]` [calcofluor white M2R new], the “Difference in minimum inhibitor concentration between wild-type and ΔFOS-1 strains” value in assay [3] was “No differences in minimum inhibitor concentration”.

On to `Nc1nc(=O)[nH]cc1F` [5-fluorocytosine], for which the “Difference in minimum inhibitor concentration between wild-type and ΔFOS-1 strains” value in assay [3] is listed as “No differences in minimum inhibitor concentration”. Also, the “Relative sensitivity of wild-type, ΔCOS-1/ΔCOS-1, hemizygous and reconstituted strains” value in assay [4] is listed as “equally sensitive”.

`CCCCNC(=O)n1c(NC(=O)OC)nc2ccccc21` [benomyl]: in assay [3], the “Difference in minimum inhibitor concentration between wild-type and ΔFOS-1 strains” value is on record as “No differences in minimum inhibitor concentration”. Besides, the “Relative sensitivity of wild-type, ΔCOS-1/ΔCOS-1, hemizygous and reconstituted strains” value in assay [4] is on record as “equally sensitive”.

With `C=CC1(C)OC(=O)N(c2cc(Cl)cc(Cl)c2)C1=O` (stereo not drawn) [vinclozolin], the “Hyphal extension rate, wild-type” value in assay [1] (setting [8]) came to 0.34 ± 0.11 mm/hr. In addition, the “Hyphal extension rate, ΔFOS-1” value in assay [2] (setting [8]) is 0.50 ± 0.05 mm/hr. Also, the “Relative sensitivity of wild-type, ΔCOS-1/ΔCOS-1, hemizygous and reconstituted strains” value in assay [4] is given as “equally sensitive”. Besides, the “Resistance of OS-1 mutant strains” value in assay [6] is on record as “highly resistant”.

Consider `CC(C)NC(=O)N1CC(=O)N(c2cc(Cl)cc(Cl)c2)C1=O` [iprodione], for which the “Hyphal extension rate, wild-type” value in assay [1] (setting [8]) is 0.29 ± 0.11 mm/hr. Moreover, the “Hyphal extension rate, ΔFOS-1” value in assay [2] (setting [8]) was 0.52 ± 0.03 mm/hr.

In the case of `CC(=O)N1CCN(c2ccc(OCC3COC(Cn4ccnc4)(c4ccc(Cl)cc4Cl)O3)cc2)CC1` (stereo not drawn) [ketoconazole], the “Difference in minimum inhibitor concentration between wild-type and ΔFOS-1 strains” value in assay [3] was “No differences in minimum inhibitor concentration”. The “Relative sensitivity of wild-type, ΔCOS-1/ΔCOS-1, hemizygous and reconstituted strains” value in assay [4] was “equally sensitive”.

`C[C@@H]([C@H](N)C(=O)N[C@H](C(=O)O)[C@H]1O[C@@H](n2ccc(=O)[nH]c2=O)[C@H](O)[C@@H]1O)[C@H](O)c1ccc(O)cn1` [nikkomycin Z]: the “Difference in minimum inhibitor concentration between wild-type and ΔFOS-1 strains” value in assay [3] is “No differences in minimum inhibitor concentration”. In assay [4], the “Relative sensitivity of wild-type, ΔCOS-1/ΔCOS-1, hemizygous and reconstituted strains” value was “equally sensitive”.

As for `CCCCCCCCOc1ccc(C(=O)N[C@H]2C[C@@H](O)[C@@H](O)NC(=O)[C@@H]3[C@@H](O)[C@@H](C)CN3C(=O)[C@H]([C@@H](C)O)NC(=O)[C@H]([C@H](O)[C@@H](O)c3ccc(O)cc3)NC(=O)[C@@H]3C[C@@H](O)CN3C(=O)[C@H]([C@@H](C)O)NC2=O)cc1` [cilofungin] ({Benzoyl(4-octyloxy)}-[Orn(4R-OH,5R-OH)]T[Hyp][hTyr(3S-OH,4S-OH)]T[Pro(3S-OH,4S-Me)]; lactam 1-C), the “Difference in minimum inhibitor concentration between wild-type and ΔFOS-1 strains” value in assay [3] is on record as “No differences in minimum inhibitor concentration”. The “Relative sensitivity of wild-type, ΔCOS-1/ΔCOS-1, hemizygous and reconstituted strains” value in assay [4] was “equally sensitive”.

`OC(Cn1cncn1)(Cn1cncn1)c1ccc(F)cc1F` [fluconazole]: in assay [3], the “Difference in minimum inhibitor concentration between wild-type and ΔFOS-1 strains” value is given as “No differences in minimum inhibitor concentration”. For the same compound, the “Relative sensitivity of wild-type, ΔCOS-1/ΔCOS-1, hemizygous and reconstituted strains” value in assay [4] was “equally sensitive”.

As to `CC1=CC(=O)c2ccccc2C1=O` [menadione], the “Difference in hyphal growth/extension rates between wild-type and ΔFOS-1 strains” value in assay [5] is given as “No differences in hyphal growth/extension rates”.

`C[C@@H]1[C@H](O)[C@@H](C)/C=C/C=C/C=C/C=C/C=C/C=C/C=C/[C@H](O[C@@H]2O[C@H](C)[C@@H](O)[C@H](N)[C@@H]2O)C[C@@H]2O[C@](O)(C[C@@H](O)C[C@@H](O)[C@H](O)CC[C@@H](O)C[C@@H](O)CC(=O)O[C@H]1C)C[C@H](O)[C@H]2C(=O)O` [amphotericin B]: the “Difference in minimum inhibitor concentration between wild-type and ΔFOS-1 strains” value in assay [3] is “No differences in minimum inhibitor concentration”. The “Relative sensitivity of wild-type, ΔCOS-1/ΔCOS-1, hemizygous and reconstituted strains” value in assay [4] is “equally sensitive”.
